The supplement of paper PMC10307832

Key:
Assay in all cases: relative viability (nuclei count vs DMSO), 5 days (fraction); higher = more cells survive
[1] = compound: CC1(C)CCC(CN2CCN(c3ccc(C(=O)NS(=O)(=O)c4ccc(NCC5CCOCC5)c([N+](=O)[O-])c4)c(Oc4cnc5[nH]ccc5c4)c3)CC2)=C(c2ccc(Cl)cc2)C1 [Venetoclax] + CC(=O)c1c(C)c2cnc(Nc3ccc(N4CCNCC4)cn3)nc2n(C2CCCC2)c1=O [Palbociclib] (partner 0.5 µM)
Outline: (§1)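 Dosing by pin tool came one day after lung cancer cell lines were seeded in 1536-well plates, using either one drug or a fixed anchor-drug dose plus five library-drug doses (not always all listed) in √10 steps. After 5 days, nuclei were counted on 4× images. Relative viability is treated-well nuclei count divided by vehicle-well nuclei count, and values are medians of duplicate plates.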

[2] = compound: CC1(C)CCC(CN2CCN(c3ccc(C(=O)NS(=O)(=O)c4ccc(NCC5CCOCC5)c([N+](=O)[O-])c4)c(Oc4cnc5[nH]ccc5c4)c3)CC2)=C(c2ccc(Cl)cc2)C1 [Venetoclax] + C[C@@H](Oc1cc(-c2cnn(C3CCNCC3)c2)cnc1N)c1c(Cl)ccc(F)c1Cl [Crizotinib] (partner 1 µM)
Outline: as §1

[3] = compound: Cn1cnc2c(F)c(Nc3ccc(Br)cc3Cl)c(C(=O)NOCCO)cc21 [Selumetinib] + O=C(CCCCCCC(=O)Nc1ccccc1)NO [Vorinostat] (partner 1 µM)
Outline: as §1

[4] = compound: Cn1cnc2c(F)c(Nc3ccc(Br)cc3Cl)c(C(=O)NOCCO)cc21 [Selumetinib] + CC(C)C[C@H](NC(=O)[C@H](Cc1ccccc1)NC(=O)c1cnccn1)B(O)O [Bortezomib] (partner 0.002 µM)
Outline: as §1

## NCI-H3122
[1]; first compound 0.01 µM
  relative viability: 0.249
[1]; first compound 0.03162 µM
  relative viability: 0.226
[1]; first compound 0.1 µM
  relative viability: 0.185
[1]; first compound 0.3162 µM
  relative viability: 0.18
[1]; first compound 1 µM
  relative viability: 0.204
[2]; first compound 0.01 µM
  relative viability: 0.306
[2]; first compound 0.03162 µM
  relative viability: 0.258
[2]; first compound 0.1 µM
  relative viability: 0.269
[2]; first compound 0.3162 µM
  relative viability: 0.247
[2]; first compound 1 µM
  relative viability: 0.276
[3]; first compound 0.02 µM
  relative viability: 0.988
[3]; first compound 0.06325 µM
  relative viability: 0.651
[3]; first compound 0.2 µM
  relative viability: 0.84
[3]; first compound 0.6325 µM
  relative viability: 0.651
[4]; first compound 0.02 µM
  relative viability: 0.896
[4]; first compound 0.06325 µM
  relative viability: 0.811
[4]; first compound 0.2 µM
  relative viability: 0.779
[4]; first compound 0.6325 µM
  relative viability: 0.78

## PC-3 [JPC-3]
[1]; first compound 0.01 µM
  relative viability: 0.561
[1]; first compound 0.03162 µM
  relative viability: 0.533
[1]; first compound 0.1 µM
  relative viability: 0.583
[1]; first compound 0.3162 µM
  relative viability: 0.558
[1]; first compound 1 µM
  relative viability: 0.517
[2]; first compound 0.01 µM
  relative viability: 0.896
[2]; first compound 0.03162 µM
  relative viability: 0.987
[2]; first compound 0.1 µM
  relative viability: 1.04
[2]; first compound 0.3162 µM
  relative viability: 0.965
[2]; first compound 1 µM
  relative viability: 0.969
[3]; first compound 0.02 µM
  relative viability: 1.02
[3]; first compound 0.06325 µM
  relative viability: 0.663
[3]; first compound 0.2 µM
  relative viability: 0.748
[3]; first compound 0.6325 µM
  relative viability: 0.734
[4]; first compound 0.02 µM
  relative viability: 0.822
[4]; first compound 0.06325 µM
  relative viability: 0.813
[4]; first compound 0.2 µM
  relative viability: 0.669
[4]; first compound 0.6325 µM
  relative viability: 0.551

## PC-14
[1]; first compound 0.01 µM
  relative viability: 0.521
[1]; first compound 0.03162 µM
  relative viability: 0.514
[1]; first compound 0.1 µM
  relative viability: 0.546
[1]; first compound 0.3162 µM
  relative viability: 0.574
[1]; first compound 1 µM
  relative viability: 0.437
[2]; first compound 0.01 µM
  relative viability: 0.844
[2]; first compound 0.03162 µM
  relative viability: 0.972
[2]; first compound 0.1 µM
  relative viability: 1.06
[2]; first compound 0.3162 µM
  relative viability: 0.864
[2]; first compound 1 µM
  relative viability: 0.801
[3]; first compound 0.02 µM
  relative viability: 0.835
[3]; first compound 0.06325 µM
  relative viability: 0.667
[3]; first compound 0.2 µM
  relative viability: 0.688
[3]; first compound 0.6325 µM
  relative viability: 0.504
[4]; first compound 0.02 µM
  relative viability: 0.889
[4]; first compound 0.06325 µM
  relative viability: 0.815
[4]; first compound 0.2 µM
  relative viability: 0.926
[4]; first compound 0.6325 µM
  relative viability: 0.766

## RERF-LC-KJ
[1]; first compound 0.01 µM
  relative viability: 1.05
[1]; first compound 0.03162 µM
  relative viability: 1.08
[1]; first compound 0.1 µM
  relative viability: 0.988
[1]; first compound 0.3162 µM
  relative viability: 1.03
[1]; first compound 1 µM
  relative viability: 1.03
[2]; first compound 0.01 µM
  relative viability: 0.742
[2]; first compound 0.03162 µM
  relative viability: 0.872
[2]; first compound 0.1 µM
  relative viability: 1.08
[2]; first compound 0.3162 µM
  relative viability: 0.879
[2]; first compound 1 µM
  relative viability: 0.785
[3]; first compound 0.02 µM
  relative viability: 0.649
[3]; first compound 0.06325 µM
  relative viability: 0.656
[3]; first compound 0.2 µM
  relative viability: 0.629
[3]; first compound 0.6325 µM
  relative viability: 0.637
[4]; first compound 0.02 µM
  relative viability: 1.05
[4]; first compound 0.06325 µM
  relative viability: 1.01
[4]; first compound 0.2 µM
  relative viability: 0.92
[4]; first compound 0.6325 µM
  relative viability: 0.944

## SK-LU-1
[1]; first compound 0.01 µM
  relative viability: 0.405
[1]; first compound 0.03162 µM
  relative viability: 0.403
[1]; first compound 0.1 µM
  relative viability: 0.35
[1]; first compound 0.3162 µM
  relative viability: 0.403
[1]; first compound 1 µM
  relative viability: 0.372
[2]; first compound 0.01 µM
  relative viability: 0.814
[2]; first compound 0.03162 µM
  relative viability: 0.972
[2]; first compound 0.1 µM
  relative viability: 0.763
[2]; first compound 0.3162 µM
  relative viability: 0.983
[2]; first compound 1 µM
  relative viability: 0.849
[3]; first compound 0.02 µM
  relative viability: 0.779
[3]; first compound 0.06325 µM
  relative viability: 0.717
[3]; first compound 0.2 µM
  relative viability: 0.686
[3]; first compound 0.6325 µM
  relative viability: 0.443
[4]; first compound 0.02 µM
  relative viability: 1.25
[4]; first compound 0.06325 µM
  relative viability: 1.28
[4]; first compound 0.2 µM
  relative viability: 0.918
[4]; first compound 0.6325 µM
  relative viability: 0.715

## SW 1573
[1]; first compound 0.01 µM
  relative viability: 0.337
[1]; first compound 0.03162 µM
  relative viability: 0.422
[1]; first compound 0.1 µM
  relative viability: 0.377
[1]; first compound 0.3162 µM
  relative viability: 0.36
[1]; first compound 1 µM
  relative viability: 0.362
[2]; first compound 0.01 µM
  relative viability: 0.81
[2]; first compound 0.03162 µM
  relative viability: 0.808
[2]; first compound 0.1 µM
  relative viability: 0.752
[2]; first compound 0.3162 µM
  relative viability: 0.823
[2]; first compound 1 µM
  relative viability: 0.732
[3]; first compound 0.02 µM
  relative viability: 0.652
[3]; first compound 0.06325 µM
  relative viability: 0.582
[3]; first compound 0.2 µM
  relative viability: 0.703
[3]; first compound 0.6325 µM
  relative viability: 0.914
[4]; first compound 0.02 µM
  relative viability: 1.01
[4]; first compound 0.06325 µM
  relative viability: 0.86
[4]; first compound 0.2 µM
  relative viability: 0.802
[4]; first compound 0.6325 µM
  relative viability: 0.932
